# Experimental data from ChEMBL document CHEMBL4482324, “Ash1l inhibitors and methods of treatment therewith” (2017).
# The source made the active and inactive calls. No cut-off for these calls is given here.
# Tests used:
# [1] = Effect on HOX10 gene expression in Hoxa9/Meis1 transformed mouse HM2 cells at 6 to 12 uM by quantitative RT-PCR analysis; assay type: ADME
# [2] = target: Histone-lysine N-methyltransferase ASH1L (Mus musculus) (UniProt Q99MY8); test: Inhibition of ASH1L in MLL-AF9 transformed mouse MA9 cells assessed as downregulation of Meis1 gene expression at 6 to 12 uM by quantitative RT-PCR analysis
# [3] = Cytotoxicity in MLL-AF9 transformed mouse MA9 cells assessed as reduction in cell viability incubated for 12 days with fresh compound replacement for every 4 days by MTT assay; assay type: functional
# [4] = target: Histone-lysine N-methyltransferase ASH1L (Mus musculus) (UniProt Q99MY8); test: Inhibition of ASH1L in MLL-AF9 transformed mouse MA9 cells assessed as downregulation of HOX9 gene expression at 6 to 12 uM by quantitative RT-PCR analysis
# MOLM-13 = test: Cytotoxicity in human MOLM13 cells assessed as reduction in cell viability incubated for 12 days with fresh compound replacement for every 4 days by MTT assay; assay type: functional
# [5] = Effect on HOX9 gene expression in Hoxa9/Meis1 transformed mouse HM2 cells at 6 to 12 uM by quantitative RT-PCR analysis; assay type: ADME
# [6] = Effect on HOX7 gene expression in Hoxa9/Meis1 transformed mouse HM2 cells at 6 to 12 uM by quantitative RT-PCR analysis; assay type: ADME
# [7] = target: Histone-lysine N-methyltransferase ASH1L (Mus musculus) (UniProt Q99MY8); test: Inhibition of ASH1L in MLL-AF9 transformed mouse MA9 cells assessed as downregulation of HOX7 gene expression at 6 to 12 uM by quantitative RT-PCR analysis
# [8] = target: Histone-lysine N-methyltransferase ASH1L (Mus musculus) (UniProt Q99MY8); test: Inhibition of ASH1L in MLL-AF9 transformed mouse MA9 cells assessed as downregulation of HOX10 gene expression at 6 to 12 uM by quantitative RT-PCR analysis
# [9] = target: Histone-lysine N-methyltransferase ASH1L (Homo sapiens, UniProt Q9NR48); test: Inhibition of MOCR-fused ASH1L SET-BAH ( 2069 to 2833 amino acids) (unknown origin) expressed as in Escherichia coli BL21 (DE3) T1R cells using SAM and chicken mono/dinucleosomes incubated for 1 hr by scintillation counting assay
# MV4-11 = test: Cytotoxicity in human MV4-11 cells assessed as reduction in cell viability incubated for 12 days with fresh compound replacement for every 4 days by MTT assay; assay type: functional
# [10] = Effect on Meis1 gene expression in Hoxa9/Meis1 transformed mouse HM2 cells at 6 to 12 uM by quantitative RT-PCR analysis; assay type: ADME
# [11] = Cytotoxicity in Hoxa9/Meis1 transformed mouse HM2 cells assessed as reduction in cell viability incubated for 12 days with fresh compound replacement for every 4 days by MTT assay; assay type: cell-based
# [12] = Induction of cell differentiation in Hoxa9/Meis1 transformed mouse HM2 cells at 6 to 12 uM
# Mus musculus = organism: Mus musculus; test: Induction of cell differentiation in MLL-AF9 transformed mouse MA9 cells at 6 to 12 uM; assay type: functional
# SEM cells = test: Cytotoxicity in human SEM cells assessed as reduction in cell viability incubated for 12 days with fresh compound replacement for every 4 days by MTT assay; assay type: functional
# [13] = target: Histone-lysine N-methyltransferase ASH1L (Mus musculus) (UniProt Q99MY8); test: Inhibition of ASH1L in MLL-AF9 transformed mouse MA9 cells assessed as downregulation of HOX9 gene expression at 1.5 to 6 uM by quantitative RT-PCR analysis
# [14] = target: Histone-lysine N-methyltransferase ASH1L (Mus musculus) (UniProt Q99MY8); test: Inhibition of ASH1L in MLL-AF9 transformed mouse MA9 cells assessed as downregulation of Meis1 gene expression at 1.5 to 6 uM by quantitative RT-PCR analysis
# [15] = target: Histone-lysine N-methyltransferase ASH1L (Mus musculus) (UniProt Q99MY8); test: Inhibition of ASH1L in MLL-AF9 transformed mouse MA9 cells assessed as downregulation of HOX10 gene expression at 1.5 to 6 uM by quantitative RT-PCR analysis
# RS4-11 = test: Cytotoxicity in human RS4:11 cells assessed as reduction in cell viability incubated for 12 days with fresh compound replacement for every 4 days by MTT assay; assay type: functional
inhibition [2],inhibition [4],inhibition [7],inhibition [8],IC50 [9],Compound,Activity [1],GI50 [3],GI50 (MOLM-13),Activity [5],Activity [6],GI50 (MV4-11),Activity [10],GI50 at 288 h [11],other results
inactive,inactive,inactive,inactive,> 100 µM,NC(=S)c1cccc(-c2c[nH]c3ccc(O)cc23)c1,Non-Toxic,43 µM,38 µM,Non-Toxic,Non-Toxic,27 µM,Non-Toxic,62 µM,–
Active,Active,Active,Active,4.6 µM,NC(=S)c1cccc(-c2cn(CC(CF)CF)c3cc(N)ccc23)c1,Non-Toxic,6 µM,9 µM,Non-Toxic,Non-Toxic,2 µM,Non-Toxic,33 µM,Activity [12]: Non-Toxic; Activity (Mus musculus): Active
–,–,–,–,< 20 µM,NC(=S)c1cccc(-c2cn(CCCC(F)(F)F)c3cc(-c4ccn[nH]4)ccc23)c1,–,–,1.4 µM,–,–,1.8 µM,–,–,GI50 (SEM cells): 1.1 µM; inhibition [13]: Active; inhibition [14]: Active; inhibition [15]: Active; GI50 (RS4-11): 2.8 µM
–,–,–,–,< 20 µM,NC(=S)c1cccc(-c2cn(CCC(F)F)c3cc(CO)cc(F)c23)c1,–,–,–,–,–,–,–,–,–
–,–,–,–,> 100 µM,NC(=S)c1cc(-c2ccc(O)cc2)cs1,–,–,–,–,–,–,–,–,–
–,–,–,–,20 to 100 µM,Cc1cc2c(-c3cccc(C(N)=S)c3)ccc(O)c2[nH]1,–,–,–,–,–,–,–,–,–
